Consider ten molecules from patent US12187723B2 (BRISTOL-MYERS SQUIBB COMPANY, priority 2019, dated 2025).

One test has as its target T1, human TLR8 (Homo sapiens, UniProt Q9NR97).
T1 construct: host or cells: HEK-Blue cells
T1 sequence (Q9NR97 27-1041): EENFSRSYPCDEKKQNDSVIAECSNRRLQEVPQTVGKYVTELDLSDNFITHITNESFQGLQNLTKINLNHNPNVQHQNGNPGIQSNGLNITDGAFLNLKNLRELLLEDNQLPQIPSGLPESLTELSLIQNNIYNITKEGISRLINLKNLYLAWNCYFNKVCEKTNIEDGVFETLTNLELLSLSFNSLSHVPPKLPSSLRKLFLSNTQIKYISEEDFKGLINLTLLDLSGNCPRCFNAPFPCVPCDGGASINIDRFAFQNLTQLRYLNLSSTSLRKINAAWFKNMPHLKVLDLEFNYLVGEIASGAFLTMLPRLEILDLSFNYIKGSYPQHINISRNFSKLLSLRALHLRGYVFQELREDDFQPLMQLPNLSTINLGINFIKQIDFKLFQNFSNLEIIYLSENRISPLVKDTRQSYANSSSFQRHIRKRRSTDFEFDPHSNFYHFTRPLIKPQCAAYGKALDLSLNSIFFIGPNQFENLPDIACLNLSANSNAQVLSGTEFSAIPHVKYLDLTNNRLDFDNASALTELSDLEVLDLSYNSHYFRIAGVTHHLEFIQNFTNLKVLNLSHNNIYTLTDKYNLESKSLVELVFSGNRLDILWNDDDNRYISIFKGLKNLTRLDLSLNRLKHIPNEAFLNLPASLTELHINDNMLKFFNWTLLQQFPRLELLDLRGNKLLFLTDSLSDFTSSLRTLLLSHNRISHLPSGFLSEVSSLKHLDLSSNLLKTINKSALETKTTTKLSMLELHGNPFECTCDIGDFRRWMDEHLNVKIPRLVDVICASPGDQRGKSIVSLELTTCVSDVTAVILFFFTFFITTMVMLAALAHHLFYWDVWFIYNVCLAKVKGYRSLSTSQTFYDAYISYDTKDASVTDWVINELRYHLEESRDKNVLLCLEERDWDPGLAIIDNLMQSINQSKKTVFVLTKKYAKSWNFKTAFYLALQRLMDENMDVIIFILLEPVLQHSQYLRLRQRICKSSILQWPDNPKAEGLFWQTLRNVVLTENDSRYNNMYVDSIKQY
The test is described as follows: TLR8 inhibition reporter assay (HEK-Blue SEAP). The class given is cell-based. The settings on record: HEK-Blue cells overexpressing human TLR8, R848 15.9 μM, 22 hour incubation. Put shortly:
(§1)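 HEK-Blue cells overexpressing human TLR7, TLR8 or TLR9 carry a SEAP reporter driven by NF-κB/AP-1 sites. Compounds (0.05 nM–50 μM) were preincubated 30 min at room temperature, then cells were stimulated with gardiquimod 7.5 μM (TLR7), R848 15.9 μM (TLR8) or ODN2006 5 nM (TLR9) for 22 h at 37 °C.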
Background: Reporter assays use an easily measured gene product as a stand-in for the process of interest.

Another test addresses T2, human TLR9 (Homo sapiens, UniProt Q9NR96).
T2 construct: host or cells: HEK-Blue cells
T2 sequence (Q9NR96 26-1032): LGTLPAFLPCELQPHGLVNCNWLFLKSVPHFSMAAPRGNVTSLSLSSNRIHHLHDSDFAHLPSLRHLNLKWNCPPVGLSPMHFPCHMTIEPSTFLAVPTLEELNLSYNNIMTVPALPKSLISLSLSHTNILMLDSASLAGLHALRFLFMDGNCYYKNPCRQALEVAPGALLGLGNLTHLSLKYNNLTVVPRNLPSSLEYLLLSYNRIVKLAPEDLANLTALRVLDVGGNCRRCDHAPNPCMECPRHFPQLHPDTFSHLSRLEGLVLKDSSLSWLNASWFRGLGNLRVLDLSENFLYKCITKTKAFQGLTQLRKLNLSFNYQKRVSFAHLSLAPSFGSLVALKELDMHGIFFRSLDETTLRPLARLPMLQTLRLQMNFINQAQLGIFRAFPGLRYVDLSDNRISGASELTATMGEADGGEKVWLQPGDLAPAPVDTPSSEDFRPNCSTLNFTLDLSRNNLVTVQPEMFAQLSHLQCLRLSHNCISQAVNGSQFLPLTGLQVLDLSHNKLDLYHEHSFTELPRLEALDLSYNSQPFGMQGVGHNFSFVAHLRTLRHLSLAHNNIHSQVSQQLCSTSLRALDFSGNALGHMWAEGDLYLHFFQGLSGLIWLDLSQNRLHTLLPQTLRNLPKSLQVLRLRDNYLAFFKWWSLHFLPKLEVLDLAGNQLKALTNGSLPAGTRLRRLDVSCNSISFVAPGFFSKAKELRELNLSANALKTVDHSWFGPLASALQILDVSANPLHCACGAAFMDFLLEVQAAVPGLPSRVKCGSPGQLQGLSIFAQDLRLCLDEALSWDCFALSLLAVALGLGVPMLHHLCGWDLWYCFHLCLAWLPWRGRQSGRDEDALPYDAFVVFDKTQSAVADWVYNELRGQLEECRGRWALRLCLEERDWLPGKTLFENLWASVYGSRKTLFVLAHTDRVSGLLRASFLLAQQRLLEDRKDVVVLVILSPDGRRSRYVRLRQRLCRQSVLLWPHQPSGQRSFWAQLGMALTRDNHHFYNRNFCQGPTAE
Description: TLR9 inhibition reporter assay (HEK-Blue SEAP). The class given is cell-based. As to conditions: HEK-Blue cells overexpressing human TLR9, ODN2006 5 nM, 22 hour incubation. A digest of the protocol: as §1

What is called IC50 is the midpoint of a concentration-inhibition curve. Read a low IC50 as greater potency in that assay. Regarding `COc1cc(-c2cc3[nH]c(=O)n([C@@H]4CCCN(C5COC5)C4)c3cc2C)cn2ncnc12` [Example 72, (R)-5-(8-methoxy-[1,2,4]triazolo[1,5-a]pyridin-6-yl)-6-methyl-1-(1-(oxetan-3-yl)piperidin-3-yl)-1,3-dihydro-2H-benzo[d]imidazol-2-one], the values for the IC50 against human TLR8 and on human TLR9 were 249 nM and 45800 nM, respectively.
For `Cc1cc2c(cc1-c1cc(C)c3ncnn3c1)[nH]c(=O)n2C1CCN(CC(=O)N(C)C)CC1` [Example 91, N,N-dimethyl-2-(4-(6-methyl-5-(8-methyl-[1,2,4]triazolo[1,5-a]pyridin-6-yl)-2-oxo-2,3-dihydro-1H-benzo[d]imidazol-1-yl)piperidin-1-yl)acetamide] the same measures were more than 3130 nM and more than 50000 nM.
For `COc1cc(-c2cc3[nH]c(=O)n([C@H]4CC[C@@H](NC5CCC5)CC4)c3cc2C)cn2ncnc12` [Example 58, 1-((1s,4s)-4-(cyclobutylamino)cyclohexyl)-5-(8-methoxy-[1,2,4]triazolo[1,5-a]pyridin-6-yl)-6-methyl-1,3-dihydro-2H-benzo[d]imidazol-2-one] the same measures were 5.2 nM and 4120 nM.
`COc1cc(-c2cc3[nH]c(=O)n(C4CCN(CC(=O)N(C)C)CC4)c3cc2C)cn2ncnc12` [Example 86, 2-(4-(5-(8-methoxy-[1,2,4]triazolo[1,5-a]pyridin-6-yl)-6-methyl-2-oxo-2,3-dihydro-1H-benzo[d]imidazol-1-yl)piperidin-1-yl)-N,N-dimethylacetamide]: the IC50 at human TLR8 stood at 359 nM; at human TLR9, 4930 nM.
For `Cc1cc2c(cc1-c1cc(C)c3ncnn3c1)[nH]c(=O)n2C1CCN(C(C)C)CC1` [Example 2, 1-(1-isopropylpiperidin-4-yl)-6-methyl-5-(8-methyl-[1,2,4]triazolo[1,5-a]pyridin-6-yl)-1,3-dihydro-2H-benzo[d]imidazol-2-one] the same measures were 107 nM and 5560 nM.
Take `CCCN1CCC(n2c(=O)[nH]c3cc(-c4cc(OC)c5ncnn5c4)ccc32)CC1` [Example 76, 5-(8-methoxy-[1,2,4]triazolo[1,5-a]pyridin-6-yl)-1-(1-propylpiperidin-4-yl)-1,3-dihydro-2H-benzo[d]imidazol-2-one]: the IC50 at human TLR8 worked out at 251 nM; against human TLR9, 1710 nM.
For `CNC(=O)CN1CCC(n2c(=O)[nH]c3cc(-c4cc(C)c5ncnn5c4)c(C)cc32)CC1` [Example 88, N-methyl-2-(4-(6-methyl-5-(8-methyl-[1,2,4]triazolo[1,5-a]pyridin-6-yl)-2-oxo-2,3-dihydro-1H-benzo[d]imidazol-1-yl)piperidin-1-yl)acetamide] the same measures were 115 nM and 45300 nM.
Take `Cc1cc2c(cc1-c1cc(C)c3ncnn3c1)[nH]c(=O)n2C1CCN(CC(=O)N(C)C)CC1` [Example 89, N,N-dimethyl-2-(4-(6-methyl-5-(8-methyl-[1,2,4]triazolo[1,5-a]pyridin-6-yl)-2-oxo-2,3-dihydro-1H-benzo[d]imidazol-1-yl)piperidin-1-yl)acetamide]: the IC50 was 105 nM against human TLR8 and 29000 nM against human TLR9.
`COc1cc(-c2cc3[nH]c(=O)n([C@@H]4CCCN(C5CCOCC5)C4)c3cc2C)cn2ncnc12` [Example 70, (R)-5-(8-methoxy-[1,2,4]triazolo[1,5-a]pyridin-6-yl)-6-methyl-1-(1-(tetrahydro-2H-pyran-4-yl)piperidin-3-yl)-1,3-dihydro-2H-benzo[d]imidazol-2-one]: the half-inhibitory concentration (IC50) on human TLR8 came out at 117 nM; on human TLR9 it was 17600 nM.
Consider `CCN[C@H]1CC[C@@H](n2c(=O)[nH]c3cc(-c4cc(OC)c5ncnn5c4)c(C)cc32)CC1` [Example 63, 1-((1s,4s)-4-(ethylamino)cyclohexyl)-5-(8-methoxy-[1,2,4]triazolo[1,5-a]pyridin-6-yl)-6-methyl-1,3-dihydro-2H-benzo[d]imidazol-2-one], for which the IC50 on human TLR8 worked out at 21.5 nM; on human TLR9, 10000 nM.
